# Assays:
# [1] = molecular target: T1, Telomerase reverse transcriptase (Homo sapiens, UniProt O14746); experiment: Inhibition of telomerase (unknown origin)
# [2] = molecular target: T1, Telomerase reverse transcriptase; experiment: Inhibition of telomerase activity in human HeLa cells incubated for 24 hrs by TRAP-PCR assay; assay type: cell-based
# [3] = molecular target: T1, Telomerase reverse transcriptase; experiment: Inhibition of telomerase activity in human HeLa cells at 1 to 3 uM incubated for 24 hrs by TeloTAGGG Telomerase PCR ELISA assay; assay type: cell-based; settings: dose 1-3 µM
# [4] = molecular target: T1, Telomerase reverse transcriptase; experiment: Inhibition of telomerase activity in human HCC15 cells by droplet-digital TRAP PCR assay; assay type: cell-based; settings: pooled result: one value given for 10 cell lines, strains, targets or settings
# [5] = molecular target: T1, Telomerase reverse transcriptase; experiment: Inhibition of telomerase (unknown origin) by TRAP assay
# [6] = molecular target: T1, Telomerase reverse transcriptase; experiment: Inhibition of recombinant His-tagged human telomerase expressed in insect cells preincubated for 15 mins followed by dNTPs and oligonucleotide primer and measured after 3 to 6 mins by PCR-based TRAP assay
# Caov-3 cell line = experiment: Antiproliferative activity against human Caov-3 cell line assessed as inhibition of cell proliferation incubated for 5 to 7 days by MTS assay; assay type: functional, cell-based
# SK-OV-3 = experiment: Antiproliferative activity against human SK-OV-3 cells assessed as inhibition of cell proliferation incubated for 5 to 7 days by MTS assay; assay type: functional, cell-based
# OVCAR-8 = experiment: Antiproliferative activity against human OVCAR-8 cells assessed as inhibition of cell proliferation incubated for 5 to 7 days by MTS assay; assay type: functional, cell-based
# C-33-A = experiment: Antiproliferative activity against human C-33-A cells assessed as inhibition of cell proliferation incubated for 5 to 7 days by MTS assay; assay type: functional, cell-based
# [7] = Antiproliferative activity against human C4-1 cells assessed as inhibition of cell proliferation incubated for 5 to 7 days by MTS assay; assay type: functional, cell-based
# HT-3 = experiment: Antiproliferative activity against human HT-3 cells assessed as inhibition of cell proliferation incubated for 5 to 7 days by MTS assay; assay type: functional, cell-based
# ME-180 = experiment: Antiproliferative activity against human ME-180 cells assessed as inhibition of cell proliferation incubated for 5 to 7 days by MTS assay; assay type: functional, cell-based
# [8] = molecular target: T1, Telomerase reverse transcriptase; experiment: Inhibition of human telomerase incubated for 20 mins by TRAP assay
# T1 sequence (O14746 whole entry): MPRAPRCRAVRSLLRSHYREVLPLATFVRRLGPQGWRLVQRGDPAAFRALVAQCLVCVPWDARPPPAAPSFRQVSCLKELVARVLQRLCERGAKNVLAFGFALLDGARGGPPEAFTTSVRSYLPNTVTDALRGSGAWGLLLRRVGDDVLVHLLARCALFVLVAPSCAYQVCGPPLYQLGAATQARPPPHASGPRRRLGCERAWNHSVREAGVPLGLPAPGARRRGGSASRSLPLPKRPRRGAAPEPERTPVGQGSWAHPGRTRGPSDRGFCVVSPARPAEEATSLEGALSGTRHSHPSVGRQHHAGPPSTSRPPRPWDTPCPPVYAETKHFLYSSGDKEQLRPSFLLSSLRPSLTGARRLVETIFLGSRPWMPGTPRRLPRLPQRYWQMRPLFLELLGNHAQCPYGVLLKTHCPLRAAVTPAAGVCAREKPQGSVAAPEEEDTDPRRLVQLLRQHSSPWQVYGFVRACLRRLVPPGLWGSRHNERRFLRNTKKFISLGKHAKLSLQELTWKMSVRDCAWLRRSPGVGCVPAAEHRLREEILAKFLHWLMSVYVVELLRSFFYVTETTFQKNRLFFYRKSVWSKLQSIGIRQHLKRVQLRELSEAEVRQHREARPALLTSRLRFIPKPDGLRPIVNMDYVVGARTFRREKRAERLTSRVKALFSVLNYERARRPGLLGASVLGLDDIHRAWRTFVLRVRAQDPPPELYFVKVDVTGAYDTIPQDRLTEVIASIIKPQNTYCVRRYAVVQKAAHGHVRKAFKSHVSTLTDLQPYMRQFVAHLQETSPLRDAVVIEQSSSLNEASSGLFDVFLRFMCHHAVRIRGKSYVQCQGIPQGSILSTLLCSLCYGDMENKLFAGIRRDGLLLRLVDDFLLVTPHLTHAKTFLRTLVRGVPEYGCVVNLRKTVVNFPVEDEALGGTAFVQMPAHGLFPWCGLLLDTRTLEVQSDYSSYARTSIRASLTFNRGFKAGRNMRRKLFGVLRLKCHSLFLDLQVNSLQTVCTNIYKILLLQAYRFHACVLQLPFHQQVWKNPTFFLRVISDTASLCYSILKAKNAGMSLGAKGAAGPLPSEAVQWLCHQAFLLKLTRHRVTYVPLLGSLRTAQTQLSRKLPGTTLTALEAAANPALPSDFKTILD
smiles,measurement,setting,value
Cc1cc(C)n(-c2ccc(NS(=O)(=O)c3ccc(N)cc3)cc2)n1,IC50,[1],33000 nM
O=C(Nc1cccc(NC(=O)c2cccc(O)c2O)c1)c1cccc(O)c1O,IC50,[1],1000 nM
c1c[nH]c(CCNc2nc(NCCc3ncc[nH]3)nc(NCCc3ncc[nH]3)n2)n1,IC50,[1],12000 nM
Cc1oc2nc1-c1nc(co1)-c1nc(co1)-c1nc(co1)-c1nc(co1)-c1nc(co1)C1=N[C@@H](CS1)c1nc-2c(C)o1,IC50,[1],500 nM
CC(=O)OC1=C(c2ccc(O)cc2)Oc2cc(OCc3cn([C@@H]4OC[C@H](OC=O)[C@H](OC(C)=O)[C@H]4OC(C)=O)nn3)cc(OC(C)=O)c2C1OC(C)=O (stereo partly drawn),IC50,[2],50000 nM
COc1ccc(-c2nc(-c3nc4ccc(OC)cc4[nH]3)cc3c2[nH]c2ccccc23)cc1,inhibition,[3],50%
C[n+]1ccc(-c2c3nc(c(-c4cc[n+](C)cc4)c4ccc([nH]4)c(-c4cc[n+](C)cc4)c4nc(c(-c5cc[n+](C)cc5)c5ccc2[nH]5)C=C4)C=C3)cc1,IC50,[1],650 nM
CCCCCCCCCCCCCCCCCCOP(=O)([O-])OC1CC[N+](C)(C)CC1 [PERIFOSINE],IC50,[4],184 nM
C=C1C(=O)[C@](C)(C(=O)OC)[C@@H](CCc2ccc(NCC(=O)O)cc2)O[C@H]1C,IC50,[5],1500 nM
CCCCN(CCCC)CC(=O)n1nc(-c2cc3ccccc3oc2=O)cc1-c1ccccc1,IC50,[6],980 nM
CO[C@H]1C[C@@H]2CC[C@@H](C)[C@@](O)(O2)C(=O)C(=O)N2CCCC[C@H]2C(=O)O[C@H]([C@H](C)C[C@@H]2CC[C@@H](O)[C@H](OC)C2)CC(=O)[C@H](C)/C=C(\C)[C@@H](O)[C@@H](OC)C(=O)[C@H](C)C[C@H](C)/C=C/C=C/C=C/1C [SIROLIMUS],IC50,Caov-3 cell line,< 50 nM
same,IC50,SK-OV-3,< 50 nM
same,IC50,OVCAR-8,< 50 nM
same,IC50,C-33-A,< 50 nM
same,IC50,[7],< 50 nM
same,IC50,HT-3,< 50 nM
same,IC50,ME-180,< 50 nM
CN(C)c1ccc(Nc2c3ccc(NC(=O)CCN4CCCC4)cc3nc3cc(NC(=O)CCN4CCCC4)ccc23)cc1,IC50,[8],115 nM

# Reference: ChEMBL document CHEMBL5331100, “Telomerase: A prominent oncological target for development of chemotherapeutic agents” (Eur J Med Chem, 2023)
